Test results from ChEMBL document CHEMBL1123249, “Nitrobenzyl derivatives as bioreductive alkylating agents: evidence for the reductive formation of a reactive intermediate” (1986).

Experiments:
Format in all cases: functional, Mus musculus
[1] = test system: EMT6; test: Compound was evaluated for its effect on survival of hypoxic EMT6 tumor cells when exposed to concentration at 10E-4 M
[2] = test system: EMT6; test: Compound was evaluated for its effect on survival of hypoxic EMT6 tumor cells when exposed to concentration at 10E-8 M
[3] = test system: EMT6; test: Compound was evaluated for its effect on survival of hypoxic EMT6 tumor cells when exposed to concentration at 10E-6 M
[4] = test system: EMT6; test: Compound was evaluated for its effect on survival of aerobic EMT6 tumor cells when exposed to concentration at 10E-6 M
[5] = test system: EMT6; test: Compound was evaluated for its effect on survival of aerobic EMT6 tumor cells when exposed to concentration at 10E-4 M
[6] = test system: EMT6; test: Compound was evaluated for its effect on survival of aerobic EMT6 tumor cells when exposed to concentration at 10e-8 M
[7] = test system: EMT6; test: Compound was evaluated for its effect on survival of hypoxic EMT6 tumor cells when exposed to concentration at 10e-5 M
[8] = test system: EMT6; test: Compound was evaluated for its effect on survival of aerobic EMT6 tumor cells when exposed to concentration at 10E-5 M
[9] = test system: EMT6; test: Compound was evaluated for its effect on survival of aerobic EMT6 tumor cells when exposed to concentration at 10e-6 M
[10] = test system: EMT6; test: Compound was evaluated for its effect on survival of hypoxic EMT6 tumor cells when exposed to concentration at 10e-7 M
[11] = test system: EMT6; test: Compound was evaluated for its effect on survival of aerobic EMT6 tumor cells when exposed to concentration at 10e-7 M

| SMILES | Surviving factor [1] [%] | Surviving factor [2] [%] | Surviving factor [3] [%] | Surviving factor [4] [%] | Surviving factor [5] [%] | Surviving factor [6] [%] | Surviving factor [7] [%] | Surviving factor [8] [%] | Surviving factor [9] [%] | Surviving factor [10] [%] | Surviving factor [11] [%] |
| --- | --- | --- | --- | --- | --- | --- | --- | --- | --- | --- | --- |
| Nc1nc(SCc2ccc([N+](=O)[O-])cc2)c2nc[nH]c2n1 | 156 | 102 | 137 | 106 | 78 | 79 |  |  |  |  |  |
| Nc1nc(SCc2cccc([N+](=O)[O-])c2)c2[nH]cnc2n1 | 88 |  | 103 |  | 91 |  | 103 | 103 | 95 |  |  |
| Nc1nc(SCc2ccccc2[N+](=O)[O-])c2[nH]cnc2n1 | 85 | 94 | 82 | 95 | 89 | 91 |  |  |  |  |  |
| Nc1nc2[nH]cnc2c(=S)[nH]1 [THIOGUANINE] | 106 |  | 90 |  | 67 |  | 107 | 78 | 70 | 89 | 95 |
